Data as given in patent publication US5498632A, “Esters of acyl carnitines with long-chain aliphatic alcohols and pharmaceutical compositions containing same having antibacterial activity” (Sigma-Tau Industrie Farmaceutiche Riunite S.p.A., priority 1992, dated 1996).
Like-named read-outs stand apart in the source and are kept apart here.

Tests used:
Format in all cases: cell-based
Gram+ bacterial strains = test: Mean MIC in broth and resistant strain number, Gram+ strains; details: 18 h, versus susceptible strains
Method: (§1) Evaluation of the Minimal Inhibitory Concentration (MIC) in broth of 15 new substances for Gram+ bacterial strains.
(§2) The following strains were used: Staphylococcus aureus (4); Streptococcus faecalis (8); Bacillus pumilus (1); Bacillus subtilis (1).
(§3) MICs were determined by a standard microdilution test, using serial two-fold dilutions of the substances in Mueller-Hinton broth.
(§4) The inoculum was prepared from an overnight culture in Mueller-Hinton broth matching the 0.5 Mc Farland (turbidity) standard (BRAY W. E., Clinical Laboratory Methods, 5th Ed. C. V. MOSBY, St. Louis, Mo. 1957), and was adjusted to a final concentration of 5.0×10^4 colony-forming units/ml.
(§5) Equal volumes (0.1 ml) of both bacterial suspensions and substance solutions were distributed in microtiter plates (Falcon, 96 wells, round bottom), and then placed in a humidified incubator (37° C.) for 18 hours.
(§6) The results, in terms of MIC values, resistant strain number and mean MIC values versus susceptible strains, are illustrated in Tables 1-6.

[1] = tested on: Streptococcus faecalis (UM); test: MIC in broth, Gram+ strains; details: Enterococcus faecalis; S. faecalis (UM), Mueller-Hinton broth, 37° C., 18 hours; read-out: Minimal Inhibitory Concentration (MIC)
Method: as §1, §2, §3, §4, §5, §6

[2] = tested on: Streptococcus faecalis (516); test: MIC in broth, Gram+ strains; details: Enterococcus faecalis; S. faecalis (516), Mueller-Hinton broth, 37° C., 18 hours; read-out: Minimal Inhibitory Concentration (MIC)
Method: as §1, §2, §3, §4, §5, §6

[3] = tested on: Streptococcus faecalis (519); test: MIC in broth, Gram+ strains; details: Enterococcus faecalis; S. faecalis (519), Mueller-Hinton broth, 37° C., 18 hours; read-out: Minimal Inhibitory Concentration (MIC)
Method: as §1, §2, §3, §4, §5, §6

[4] = tested on: Staphylococcus aureus (ATCC 14154); test: MIC in broth, Gram+ strains; details: ATCC14154, S. aureus (ATCC 14154), Mueller-Hinton broth, 37° C., 18 hours, read-out: Minimal Inhibitory Concentration (MIC)
Method: as §1, §2, §3, §4, §5, §6

[5] = tested on: Staphylococcus aureus (306 MR); test: MIC in broth, Gram+ strains; details: S. aureus (306 MR), Mueller-Hinton broth, 37° C., 18 hours, read-out: Minimal Inhibitory Concentration (MIC)
Method: as §1, §2, §3, §4, §5, §6

[6] = tested on: Streptococcus faecalis (501); test: MIC in broth, Gram+ strains; details: Enterococcus faecalis; S. faecalis (501), Mueller-Hinton broth, 37° C., 18 hours; read-out: Minimal Inhibitory Concentration (MIC)
Method: as §1, §2, §3, §4, §5, §6

[7] = tested on: Streptococcus faecalis (R 2); test: MIC in broth, Gram+ strains; details: Enterococcus faecalis; S. faecalis (R 2), Mueller-Hinton broth, 37° C., 18 hours; read-out: Minimal Inhibitory Concentration (MIC)
Method: as §1, §2, §3, §4, §5, §6

[8] = tested on: Streptococcus faecalis (505); test: MIC in broth, Gram+ strains; details: Enterococcus faecalis; S. faecalis (505), Mueller-Hinton broth, 37° C., 18 hours; read-out: Minimal Inhibitory Concentration (MIC)
Method: as §1, §2, §3, §4, §5, §6

[9] = tested on: Staphylococcus aureus (303); test: MIC in broth, Gram+ strains; details: S. aureus (303), Mueller-Hinton broth, 37° C., 18 hours, read-out: Minimal Inhibitory Concentration (MIC)
Method: as §1, §2, §3, §4, §5, §6

[10] = tested on: Bacillus pumilus (CN 607); test: MIC in broth, Gram+ strains; details: B. pumilus (CN 607), Mueller-Hinton broth, 37° C., 18 hours, read-out: Minimal Inhibitory Concentration (MIC)
Method: as §1, §2, §3, §4, §5, §6

[11] = tested on: Streptococcus faecalis (518); test: MIC in broth, Gram+ strains; details: Enterococcus faecalis; S. faecalis (518), Mueller-Hinton broth, 37° C., 18 hours; read-out: Minimal Inhibitory Concentration (MIC)
Method: as §1, §2, §3, §4, §5, §6

[12] = tested on: Bacillus subtilis (ATCC 6051); test: MIC in broth, Gram+ strains; details: ATCC6051, B. subtilis (ATCC 6051), Mueller-Hinton broth, 37° C., 18 hours, read-out: Minimal Inhibitory Concentration (MIC)
Method: as §1, §2, §3, §4, §5, §6

[13] = tested on: Staphylococcus aureus (LC1); test: MIC in broth, Gram+ strains; details: S. aureus (LC1), Mueller-Hinton broth, 37° C., 18 hours, read-out: Minimal Inhibitory Concentration (MIC)
Method: as §1, §2, §3, §4, §5, §6

[14] = tested on: Streptococcus faecalis (509); test: MIC in broth, Gram+ strains; details: Enterococcus faecalis; S. faecalis (509), Mueller-Hinton broth, 37° C., 18 hours; read-out: Minimal Inhibitory Concentration (MIC)
Method: as §1, §2, §3, §4, §5, §6

[15] = tested on: Salmonella typhimurium (D.S.); test: MIC in broth, Gram- strains; details: Salmonella enterica, 18 h, read-out: Minimal Inhibitory Concentration (MIC)
Method: as §3, §4, §5
(§7) Evaluation of the Minimal Inhibitory Concentration (MIC) in broth of 16 new substances for Gram- bacterial strains.
(§8) The following strains were used: Enterobacter (1), Escherichia (3), Klebsiella (3), Proteus (3); Pseudomonas (2); Salmonella (2), Serratia (1).

Salmonella typhi (J) = test: MIC in broth, Gram- strains; details: Salmonella enterica, 18 h, read-out: Minimal Inhibitory Concentration (MIC)
Method: as §3, §4, §5, §7, §8

[16] = tested on: Pseudomonas aeruginosa (3 E); test: MIC in broth, Gram- strains; details: 18 h, read-out: Minimal Inhibitory Concentration (MIC)
Method: as §3, §4, §5, §7, §8

Escherichia coli (R 57B) = test: MIC in broth, Gram- strains; details: 18 h, E. coli (R 57B), read-out: Minimal Inhibitory Concentration (MIC)
Method: as §3, §4, §5, §7, §8

[17] = tested on: Klebsiella aerogenes (SH 1082); test: MIC in broth, Gram- strains; details: 18 h, read-out: Minimal Inhibitory Concentration (MIC)
Method: as §3, §4, §5, §7, §8

Escherichia coli (92 F) = test: MIC in broth, Gram- strains; details: 18 h, E. coli (92 F), read-out: Minimal Inhibitory Concentration (MIC)
Method: as §3, §4, §5, §7, §8

Proteus morganii (D.S.) = test: MIC in broth, Gram- strains; details: Morganella morganii, 18 h, read-out: Minimal Inhibitory Concentration (MIC)
Method: as §3, §4, §5, §7, §8

Proteus mirabilis (32) = test: MIC in broth, Gram- strains; details: 18 h, read-out: Minimal Inhibitory Concentration (MIC)
Method: as §3, §4, §5, §7, §8

[18] = tested on: Pseudomonas aeruginosa (10 E); test: MIC in broth, Gram- strains; details: 18 h, read-out: Minimal Inhibitory Concentration (MIC)
Method: as §3, §4, §5, §7, §8

[19] = tested on: Klebsiella pneumoniae (7823); test: MIC in broth, Gram- strains; details: 18 h, read-out: Minimal Inhibitory Concentration (MIC)
Method: as §3, §4, §5, §7, §8

Proteus vulgaris (UM) = test: MIC in broth, Gram- strains; details: 18 h, read-out: Minimal Inhibitory Concentration (MIC)
Method: as §3, §4, §5, §7, §8

Klebsiella oxytoca (552) = test: MIC in broth, Gram- strains; details: 18 h, read-out: Minimal Inhibitory Concentration (MIC)
Method: as §3, §4, §5, §7, §8

Gram- bacterial strains = test: Mean MIC in broth and resistant strain number, Gram- strains; details: 18 h, read-out: Mean MIC values
Method: as §3, §4, §5, §7, §8

[20] = tested on: Enterobacter aerogenes (UM); test: MIC in broth, Gram- strains; details: Klebsiella aerogenes, 18 h, read-out: Minimal Inhibitory Concentration (MIC)
Method: as §3, §4, §5, §7, §8

Compound	MIC (Gram+ bacterial strains) [µg/mL]	MIC [1] [µg/mL]	MIC [2] [µg/mL]	MIC [3] [µg/mL]	MIC [4] [µg/mL]	MIC [6] [µg/mL]	MIC [7] [µg/mL]	MIC [8] [µg/mL]	MIC [9] [µg/mL]	MIC [10] [µg/mL]	MIC [11] [µg/mL]	MIC [12] [µg/mL]	MIC [13] [µg/mL]	MIC [14] [µg/mL]	MIC [15] [µg/mL]	MIC (Salmonella typhi (J)) [µg/mL]	MIC [16] [µg/mL]	MIC (Escherichia coli (R 57B)) [µg/mL]	MIC [17] [µg/mL]	MIC (Escherichia coli (92 F)) [µg/mL]	also measured
CCCCCCCCCCCOC(=O)CC(C[N+](C)(C)C)OC(=O)CCC(C)C (stereo not drawn) [ST 1034]	2	1.56	1.56	1.56	3.12	1.56	1.56	1.56	3.12	1.56	1.56	3.12	1.56	1.56	100	25	50	50	25	25	MIC [5]: 3.12 µg/mL; MIC (Proteus morganii (D.S.)): 100 µg/mL; MIC (Proteus mirabilis (32)): > 100 µg/mL; MIC [18]: 50 µg/mL; MIC [19]: 12.5 µg/mL; MIC (Proteus vulgaris (UM)): > 100 µg/mL; MIC (Klebsiella oxytoca (552)): 12.5 µg/mL; MIC (Gram- bacterial strains; Gram- strains, versus susceptible strains): 45 µg/mL
CCCCCCCCCCCOC(=O)CC(C[N+](C)(C)C)OC(=O)CCCCCC (stereo not drawn) [ST 1036]	2.45	1.56	3.12	3.12	3.12	1.56	3.12	1.56	3.12	1.56	3.12	3.12	1.56	1.56	> 100	25	100	> 100	100	25	MIC [5]: 3.12 µg/mL; MIC (Proteus morganii (D.S.)): > 100 µg/mL; MIC (Proteus mirabilis (32)): > 100 µg/mL; MIC [18]: > 100 µg/mL; MIC [19]: 12.5 µg/mL; MIC (Proteus vulgaris (UM)): > 100 µg/mL; MIC (Klebsiella oxytoca (552)): 50 µg/mL; MIC (Gram- bacterial strains): 60.7 µg/mL
CCCCCCCCCCCCOC(=O)CC(C[N+](C)(C)C)OC(=O)C(C)C (stereo not drawn) [ST 1038]	3.48	3.12	3.12	3.12	3.12	3.12	3.12	3.12	6.25	3.12	3.12	6.25	1.56	3.12	25	25	100	100	50	25	MIC [20]: 25 µg/mL; MIC (Proteus morganii (D.S.)): 100 µg/mL; MIC (Proteus mirabilis (32)): > 100 µg/mL; MIC [18]: 100 µg/mL; MIC [19]: 25 µg/mL; MIC (Proteus vulgaris (UM)): 100 µg/mL; MIC (Klebsiella oxytoca (552)): 25 µg/mL; MIC (Gram- bacterial strains): 41.7 µg/mL
